Values after ≈ are worked out from the molar mass of the structure shown.
What was measured:
HT-29 cell line = experiment: SRB assay, antiproliferative activity against HT-29; format: cell-based, human; settings: for IC50: Homo sapiens; for cytotoxic / antiproliferative effect against HT-29 (in words): SRB, tested concentration range 1–100 µg/mL
Experimental: (§1) The human adenocarcinoma cell line, HT-29 (ATCC HTB-38), was cultured in αMEM medium (IITD PAN) supplemented with 10% fetal bovine serum, FBS (Sigma-Aldrich, Taufkirchen, Germany), 100 U/mL penicillin, 100 µg/mL streptomycin antibiotic solution (Sigma-Aldrich, Taufkirchen, Germany), and 2 mM glutamine solution (Sigma-Aldrich, Taufkirchen, Germany). Cells from less than 20 passages were used for the study. In turn, preadipocytes from mouse embryos with the morphology of fibroblast cells, line 3T3-L1 (ATCC CL-173), were cultured in DMEM high-glucose medium (Life Technologies Corporation, Carlsbad, CA, USA) with the same supplements as above. Cells from less than 14 passages were used for the study. Both tested cell lines were grown at 37 °C in 5% CO2.
(§2) The effect of O-alkyl derivatives of naringenin and their oximes on eukaryotic cells was checked using a slightly modified SRB test described earlier. Firstly, HT-29 (1 × 10^5 cells/mL) and 3T3-L1 (5 × 10^4 cells/mL) cell lines were incubated in adherent microtiter plates under the conditions described above. The cells were then treated for 2 h with the tested compounds 1a–10a and 1b–10b at concentrations of 1, 5, 10, 25, 50, 75, and 100 µg/mL each. After this time, the medium was removed and replaced with one containing 50% (wt/vol) trichloroacetic acid (TCA; Sigma-Aldrich, Taufkirchen, Germany). Following 1 h of incubation at 4 °C, the plate was rinsed with water, and then an acidic solution of 0.4% sulforhodamine B (SRB) (Sigma-Aldrich, Taufkirchen, Germany), was added to the dried wells and incubated in the dark for half an hour. At the end of this time, the SRB solution was replaced by 1% (vol/vol) acetic acid, and the stained protein precipitate was dissolved in 10 mM Tris base solution (pH 10.5). Absorbance was measured at 560 nm in a plate reader (GloMax Discover Microplate Reader, Promega).
(§3) The cytotoxic effect of O-alkyl derivatives of naringenin and their oximes on eukaryotic cells was expressed as the concentration of the tested compounds at which 50% growth inhibition of the tested cell lines was observed. Values were presented in the form of the survival index (SI)–IC50. All determinations were repeated in three independent experiments, each performed in three technical replicates. Moreover, the effect of DMSO (Sigma-Aldrich, Taufkirchen, Germany), the solvent present in all the initial solutions of the tested compounds, on the growth of the cell lines used in the study was also verified.

3T3-L1 cell line = experiment: SRB assay, antiproliferative activity against 3T3-L1; format: cell-based, mouse; settings: for IC50: Mus musculus; for cytotoxic / antiproliferative effect against 3T3-L1 (in words): SRB, tested concentration range 1–100 µg/mL
Experimental: as §1, §2, §3

[1] = tested on: Escherichia coli K12 (ATCC 10798); experiment: Adhesion assay, static conditions: E. coli to 3T3-L1 cell line; format: cell-based
Experimental: (§4) The study used two reference strains, Escherichia coli K12 (ATCC 10798) and Enterococcus faecalis (ATCC 29212), obtained from the American Type Culture Collection. Both strains were stored in trypticase soy broth (TSB; OXOID, Basingstoke, UK) with the addition of 30% glycerol at −70 °C in the museum resources of the Department of Microbiology at the Wroclaw Medical University.
(§5) For studies determining the interaction of bacteria with eukaryotic cells, suspensions of the tested strains were prepared in Luria broth (LB, Becton, Dickinson and Company, USA) medium with a bacterial density of 6 × 10^8 CFU/mL.
(§6) The adhesion ability of the tested bacterial strains to HT-29 and 3T3-L1 cell lines was determined by an in vitro adhesion assay as described previously. Eukaryotic cells were infected with prokaryotic cells in the presence of the examined compounds in pre-selected concentrations at an MOI (multiplicity of infection) ratio of 50. Cells were exposed to the tested strains and compounds for 2 h. After this time, unbound bacteria were removed by washing with PBS (Life Technologies Corporation, Carlsbad, CA, USA). The lysates acquired by cell lysis (0.5% Triton X-100 in LB): 90 min, 37 °C, 5% CO2 atmosphere, were then seeded onto TSA and MC media for E. faecalis and E. coli, respectively. The assays were performed in at least three independent experiments (cells from subsequent passages), each in triplicate. A control without tested compounds was set for each strain.

[2] = tested on: Escherichia coli K12 (ATCC 10798); experiment: Adhesion assay, static conditions: E. coli to HT-29 cell line; format: cell-based
Experimental: as §4, §5, §6

[3] = tested on: Enterococcus faecalis (ATCC 29212); experiment: Adhesion assay, static conditions: E. faecalis to 3T3-L1 cell line; format: cell-based
Experimental: as §4, §5, §6

[4] = 2 h incubation, SRB assay, HT-29
[5] = 2 h incubation, SRB assay, 3T3-L1

Structure (SMILES) | IC50 (HT-29 cell line; [4]) | cytotoxic / antiproliferative effect against HT-29 (in words) (HT-29 cell line) | IC50 (3T3-L1 cell line; [5]) | cytotoxic / antiproliferative effect against 3T3-L1 (in words) (3T3-L1 cell line) | other results
CCCCCCOc1cc(O)c2c(c1)O[C@H](c1ccc(O)cc1)CC2=O [Compound 1a, 7-O-hexylnaringenin] | 25.4 µg/mL (≈ 71.2 µM) | antiproliferative activity | 25.8 µg/mL (≈ 72.4 µM) | cytotoxic activity | IC50 lower than compound 7a (ratio) (HT-29 cell line; HT-29, 1a vs 7a): 1.8 times
CCCCCCOc1cc(O)c2c(c1)O[C@H](c1ccc(O)cc1)CC2=NO [Compound 1b, 7-O-hexylnaringenin oxime] | 38.4 µg/mL (≈ 103 µM) | cytotoxic effects | 35 µg/mL (≈ 94.2 µM) |  | attachment of E. coli to 3T3-L1 decreased to ([1]; 1 µg/mL): 63%; adherence of E. coli to 3T3-L1 ([1]; 25 µg/mL): practically not observed
CCCCCCOc1ccc([C@@H]2CC(=O)c3c(O)cc(OCCCCCC)cc3O2)cc1 [Compound 2a, 7,4’-di-O-hexylnaringenin] | > 100 µg/mL | no effect | > 100 µg/mL | no effect | 
CCCCCCOc1ccc([C@@H]2CC(=NO)c3c(O)cc(OCCCCCC)cc3O2)cc1 [Compound 2b, 7,4’-di-O-hexylnaringenin oxime] | > 100 µg/mL |  | > 100 µg/mL |  | 
CCCCCCCOc1cc(O)c2c(c1)O[C@H](c1ccc(O)cc1)CC2=O [Compound 3a, 7-O-heptylnaringenin] | 28.7 µg/mL (≈ 77.5 µM) | antiproliferative activity | 25.6 µg/mL (≈ 69 µM) | cytotoxic activity | 
CCCCCCCOc1cc(O)c2c(c1)O[C@H](c1ccc(O)cc1)CC2=NO [Compound 3b, 7-O-heptylnaringenin oxime] | 29.1 µg/mL (≈ 75.6 µM) | cytotoxic effects | 32.1 µg/mL (≈ 83.3 µM) |  | 
CCCCCCCOc1ccc([C@@H]2CC(=O)c3c(O)cc(OCCCCCCC)cc3O2)cc1 [Compound 4a, 7,4’-di-O-heptylnaringenin] | > 100 µg/mL | no effect | > 100 µg/mL | no effect | 
CCCCCCCOc1ccc([C@@H]2CC(=NO)c3c(O)cc(OCCCCCCC)cc3O2)cc1 [Compound 4b, 7,4’-di-O-heptylnaringenin oxime] | 43.4 µg/mL (≈ 89.6 µM) |  | > 100 µg/mL |  | adhesion of E. coli to HT-29 higher than in the control ([2]; 25 µg/mL): 17 fold; adhesion of E. coli to HT-29 higher than in the control ([2]; 50 µg/mL): 5 fold; level of adherence of E. coli to HT-29 ([2]; 1–10 µg/mL or 75–100 µg/mL): very low
CCCCCCCCOc1cc(O)c2c(c1)O[C@H](c1ccc(O)cc1)CC2=O [Compound 5a, 7-O-octylnaringenin] | 38.4 µg/mL (≈ 99.7 µM) | antiproliferative activity | 20.1 µg/mL (≈ 52.3 µM) | cytotoxic activity | 
CCCCCCCCOc1cc(O)c2c(c1)O[C@H](c1ccc(O)cc1)CC2=NO [Compound 5b, 7-O-octylnaringenin oxime] | 49.8 µg/mL (≈ 125 µM) | cytotoxic effects | 49.9 µg/mL (≈ 125 µM) |  | 
CCCCCCCCOc1ccc([C@@H]2CC(=O)c3c(O)cc(OCCCCCCCC)cc3O2)cc1 [Compound 6a, 7,4’-di-O-octylnaringenin] | > 100 µg/mL | no effect | > 100 µg/mL | no effect | 
CCCCCCCCOc1ccc([C@@H]2CC(=NO)c3c(O)cc(OCCCCCCCC)cc3O2)cc1 [Compound 6b, 7,4’-di-O-octylnaringenin oxime] | > 100 µg/mL |  | > 100 µg/mL |  | 
CCCCCCCCCOc1cc(O)c2c(c1)O[C@H](c1ccc(O)cc1)CC2=O [Compound 7a, 7-O-nonylnaringenin] | 46.7 µg/mL (≈ 117 µM) | antiproliferative activity | 22.2 µg/mL (≈ 55.8 µM) | cytotoxic activity | effect on adhesion of E. faecalis to 3T3-L1 (in words) [3]: often actually limited the attachment
CCCCCCCCCOc1cc(O)c2c(c1)O[C@H](c1ccc(O)cc1)CC2=NO [Compound 7b, 7-O-nonylnaringenin oxime] | 57.8 µg/mL (≈ 140 µM) | cytotoxic effects | 41.6 µg/mL (≈ 101 µM) |  | effect on adhesion of E. faecalis to 3T3-L1 (in words) [3]: often actually limited the attachment
CCCCCCCCCOc1ccc([C@@H]2CC(=O)c3c(O)cc(OCCCCCCCCC)cc3O2)cc1 [Compound 8a, 7,4’-di-O-nonylnaringenin] | > 100 µg/mL | no effect | > 100 µg/mL | no effect | 
CCCCCCCCCCCOc1cc(O)c2c(c1)O[C@H](c1ccc(O)cc1)CC2=O [Compound 9a, 7-O-undecylnaringenin] | > 100 µg/mL |  | 80.6 µg/mL (≈ 189 µM) | cytotoxic activity | effect on adhesion of E. faecalis to 3T3-L1 (in words) [3]: often actually limited the attachment
CCCCCCCCCCCOc1cc(O)c2c(c1)O[C@H](c1ccc(O)cc1)CC2=NO [Compound 9b, 7-O-undecylnaringenin oxime] | > 100 µg/mL |  | > 100 µg/mL |  | effect on adhesion of E. faecalis to 3T3-L1 (in words) [3]: often actually limited the attachment
CCCCCCCCCCCOc1ccc([C@@H]2CC(=O)c3c(O)cc(OCCCCCCCCCCC)cc3O2)cc1 [Compound 10a, 7,4’-di-O-undecylnaringenin] | > 100 µg/mL | no effect | > 100 µg/mL | no effect | bacterial adhesion disturbed (decrease), E. coli to 3T3-L1 ([1]; regardless of the concentration used): ≈ 2 fold
CCCCCCCCCCCOc1ccc([C@@H]2CC(=NO)c3c(O)cc(OCCCCCCCCCCC)cc3O2)cc1 [Compound 10b, 7,4’-di-O-undecylnaringenin oxime] | 48.2 µg/mL (≈ 80.9 µM) |  | > 100 µg/mL |  | 
ON=C1C[C@@H](c2ccc(O)cc2)Oc2cc(O)cc(O)c21 [NGOX, naringenin oxime, reference compound] |  |  |  |  | IC50 HT-29 (HT-29 cell line; [4]): >100 µg/mL; IC50 3T3-L1 (3T3-L1 cell line; [5]): >100 µg/mL

Source: paper PMC10294875, “Ether Derivatives of Naringenin and Their Oximes as Factors Modulating Bacterial Adhesion” (Antibiotics, 2023)
